Laboratory results as given in the NIST ThermoML archive (doi:10.1016/j.jct.2017.11.017).
Numbers after ± are expanded uncertainties.

Assay: activity coefficient (dimensionless); of the first substance listed, at infinite dilution; xn = mol fraction of the nth substance listed
Details: 101.33 kPa, Liquid, Chromatography, x1 = 0

| SMILES | activity coefficient (308.15 K) | activity coefficient (318.15 K) | activity coefficient (328.15 K) | activity coefficient (338.15 K) | activity coefficient (348.15 K) | activity coefficient (358.15 K) | activity coefficient (368.15 K) | activity coefficient (298.15 K) |
| --- | --- | --- | --- | --- | --- | --- | --- | --- |
| COC(C)(C)C [2-methoxy-2-methylpropane] + C[N+]1(CCCO)CCOCC1.N#C[N-]C#N | 55.8 ± 3.8 | 52.4 ± 3.6 | 49.7 ± 3.4 | 47.1 ± 3.2 | 45 ± 3.1 | 42.9 ± 2.9 | 41.3 ± 2.8 | – |
| COC(C)(C)C [2-methoxy-2-methylpropane] + C[n+]1ccn(CCCO)c1.N#CN=C=[N-] | – | 22.8 ± 1.6 | 23.2 ± 1.6 | 23.5 ± 1.6 | 24 ± 1.6 | 24.3 ± 1.7 | 24.7 ± 1.7 | – |
| CC(C)CO [2-methyl-1-propanol] + C[N+]1(CCCO)CCOCC1.N#C[N-]C#N | – | 4.72 ± 0.32 | 4.54 ± 0.31 | 4.38 ± 0.3 | 4.25 ± 0.29 | 4.12 ± 0.28 | 4 ± 0.27 | – |
| CC(C)CO [2-methyl-1-propanol] + C[n+]1ccn(CCCO)c1.N#CN=C=[N-] | – | 2.79 ± 0.19 | 2.72 ± 0.19 | 2.68 ± 0.18 | 2.64 ± 0.18 | 2.6 ± 0.18 | 2.58 ± 0.18 | – |
| CC(C)(C)O [2-methylpropan-2-ol] + C[N+]1(CCCO)CCOCC1.N#C[N-]C#N | – | 4.35 ± 0.3 | 4.27 ± 0.29 | 4.21 ± 0.29 | 4.17 ± 0.28 | 4.14 ± 0.28 | 4.09 ± 0.28 | – |
| CC(C)(C)O [2-methylpropan-2-ol] + C[n+]1ccn(CCCO)c1.N#CN=C=[N-] | – | 2.58 ± 0.18 | 2.63 ± 0.18 | 2.68 ± 0.18 | 2.71 ± 0.18 | 2.74 ± 0.19 | 2.79 ± 0.19 | – |
| CCC(C)CC [3-methylpentane] + C[n+]1ccn(CCCO)c1.N#CN=C=[N-] | 284 ± 20 | 249 ± 17 | 221 ± 15 | – | – | – | – | 327 ± 22 |
| C=C(C)c1ccccc1 [(1-methylethenyl)benzene] + C[N+]1(CCCO)CCOCC1.N#C[N-]C#N | – | 18.1 ± 1.2 | 18.9 ± 1.3 | 19.5 ± 1.3 | 20.1 ± 1.4 | 20.7 ± 1.4 | 21.3 ± 1.5 | – |
| C=C(C)c1ccccc1 [(1-methylethenyl)benzene] + C[n+]1ccn(CCCO)c1.N#CN=C=[N-] | – | 10.2 ± 0.7 | 10.9 ± 0.7 | 11.5 ± 0.8 | 12.1 ± 0.8 | 12.7 ± 0.9 | 13.3 ± 0.9 | – |
| CC(C)=O [acetone] + C[N+]1(CCCO)CCOCC1.N#C[N-]C#N | – | 2.24 ± 0.15 | 2.3 ± 0.16 | 2.37 ± 0.16 | 2.45 ± 0.17 | 2.51 ± 0.17 | 2.59 ± 0.18 | – |
| CC(C)=O [acetone] + C[n+]1ccn(CCCO)c1.N#CN=C=[N-] | – | 1.76 ± 0.12 | 1.83 ± 0.12 | 1.92 ± 0.13 | 2 ± 0.14 | 2.09 ± 0.14 | 2.19 ± 0.15 | – |
| CC#N [acetonitrile] + C[N+]1(CCCO)CCOCC1.N#C[N-]C#N | – | 1.25 ± 0.08 | 1.29 ± 0.08 | 1.33 ± 0.09 | 1.37 ± 0.09 | 1.4 ± 0.09 | 1.45 ± 0.1 | – |
| CC#N [acetonitrile] + C[n+]1ccn(CCCO)c1.N#CN=C=[N-] | – | 1.19 ± 0.08 | 1.23 ± 0.08 | 1.29 ± 0.08 | 1.33 ± 0.09 | 1.37 ± 0.09 | 1.41 ± 0.09 | – |
| c1ccccc1 [benzene] + C[N+]1(CCCO)CCOCC1.N#C[N-]C#N | – | 6.97 ± 0.48 | 7.09 ± 0.48 | 7.2 ± 0.49 | 7.33 ± 0.5 | 7.41 ± 0.51 | 7.57 ± 0.52 | – |
| c1ccccc1 [benzene] + C[n+]1ccn(CCCO)c1.N#CN=C=[N-] | – | 4.41 ± 0.3 | 4.56 ± 0.31 | 4.74 ± 0.32 | 4.92 ± 0.34 | 5.08 ± 0.35 | 5.22 ± 0.36 | – |
| CCCCO [butan-1-ol] + C[N+]1(CCCO)CCOCC1.N#C[N-]C#N | – | 4.66 ± 0.32 | 4.5 ± 0.31 | 4.39 ± 0.3 | 4.26 ± 0.29 | 4.17 ± 0.28 | 4.08 ± 0.28 | – |
| CCCCO [butan-1-ol] + C[n+]1ccn(CCCO)c1.N#CN=C=[N-] | – | 2.8 ± 0.19 | 2.75 ± 0.19 | 2.73 ± 0.19 | 2.7 ± 0.18 | 2.69 ± 0.18 | 2.68 ± 0.18 | – |
| CCC(C)O (stereo unspecified) [butan-2-ol] + C[N+]1(CCCO)CCOCC1.N#C[N-]C#N | – | 4.46 ± 0.3 | 4.35 ± 0.3 | 4.27 ± 0.29 | 4.2 ± 0.29 | 4.15 ± 0.28 | 4.09 ± 0.28 | – |
| CCC(C)O (stereo unspecified) [butan-2-ol] + C[n+]1ccn(CCCO)c1.N#CN=C=[N-] | – | 2.74 ± 0.19 | 2.72 ± 0.19 | 2.72 ± 0.19 | 2.72 ± 0.19 | 2.7 ± 0.18 | 2.71 ± 0.18 | – |
| CCCC=O [butanal] + C[N+]1(CCCO)CCOCC1.N#C[N-]C#N | – | 4.26 ± 0.29 | 4.49 ± 0.31 | 4.74 ± 0.32 | 4.97 ± 0.34 | 5.19 ± 0.35 | 5.38 ± 0.37 | – |
| CCCC=O [butanal] + C[n+]1ccn(CCCO)c1.N#CN=C=[N-] | – | 2.68 ± 0.18 | 2.92 ± 0.2 | 3.19 ± 0.22 | 3.43 ± 0.23 | 3.72 ± 0.25 | 3.95 ± 0.27 | – |
| C1CCCCCC1 [cycloheptane] + C[N+]1(CCCO)CCOCC1.N#C[N-]C#N | 391 ± 27 | 341 ± 23 | 297 ± 20 | 260 ± 18 | 230 ± 16 | 206 ± 14 | 185 ± 13 | – |
| C1CCCCCC1 [cycloheptane] + C[n+]1ccn(CCCO)c1.N#CN=C=[N-] | 139 ± 10 | 128 ± 9 | 119 ± 8 | 111 ± 8 | 104 ± 7 | 97.8 ± 6.7 | – | 152 ± 10 |
| C1CCCCC1 [cyclohexane] + C[N+]1(CCCO)CCOCC1.N#C[N-]C#N | 381 ± 26 | 319 ± 22 | 260 ± 18 | 219 ± 15 | 184 ± 13 | 159 ± 11 | 138 ± 9 | – |
| C1CCCCC1 [cyclohexane] + C[n+]1ccn(CCCO)c1.N#CN=C=[N-] | 105 ± 7 | 97.9 ± 6.7 | 91.1 ± 6.2 | 85.5 ± 5.9 | 80.4 ± 5.5 | 76.6 ± 5.2 | – | 115 ± 8 |
| C1=CCCCC1 [cyclohexene] + C[N+]1(CCCO)CCOCC1.N#C[N-]C#N | 97 ± 6.7 | 79.1 ± 5.4 | 65.3 ± 4.5 | – | – | – | – | 121 ± 8 |
| C1=CCCCC1 [cyclohexene] + C[n+]1ccn(CCCO)c1.N#CN=C=[N-] | 38.2 ± 2.6 | 36.1 ± 2.5 | 34.5 ± 2.4 | 32.7 ± 2.2 | 31.4 ± 2.1 | 30 ± 2.1 | – | 40.7 ± 2.8 |
| C1CCCCCCC1 [cyclooctane] + C[N+]1(CCCO)CCOCC1.N#C[N-]C#N | 571 ± 39 | 478 ± 33 | 408 ± 28 | 345 ± 24 | 298 ± 20 | 260 ± 18 | 229 ± 16 | – |
